“And” between values parts separate entries of the source, which are not always exact repeats. Identical values can stand only once. ± gives the uncertainty stated by the source.
Test: xn = mol fraction of the nth substance listed

CCCCCCCCCCCCCCCC[N+](C)(C)CCOCCO.Cc1cc(Cl)ccc1OCC(=O)[O-] + CCCCCCCCCCCCCCCC[N+](C)(C)CCOCCO.Cc1cc(Cl)ccc1O[C@H](C)C(=O)[O-]
100 kPa, x1 = 0.58
Conditions	viscosity
293.15 K	4543 ± 970 mPa·s and 4543 ± 280 mPa·s
303.15 K	1909 ± 100 mPa·s
313.15 K	928.5 ± 42 mPa·s
323.15 K	493.4 ± 19 mPa·s

CC(Cl)(Cl)Cl + CCCCCCCO
303.15 K, 101 kPa
Conditions	viscosity [mPa·s]
x2 = 0.1177	0.974 ± 0.023
x2 = 0.2075	1.143 ± 0.025
x2 = 0.4385	1.666 ± 0.03
x2 = 0.5262	1.941 ± 0.032
x2 = 0.5911	2.186 ± 0.033
x2 = 0.6407	2.407 ± 0.034
x2 = 0.7497	2.99 ± 0.037
x2 = 0.8365	3.56 ± 0.039
x2 = 0.9206	4.198 ± 0.041

CC(Cl)(Cl)Cl + CCCCCCO
298.15 K, 101.33 kPa
Conditions	viscosity [mPa·s]
x1 = 0.101	3.824 ± 0.036
x1 = 0.2	3.188 ± 0.03
x1 = 0.301	2.631 ± 0.025
x1 = 0.402	2.142 ± 0.021
x1 = 0.502	1.744 ± 0.017
x1 = 0.601	1.43 ± 0.014
x1 = 0.701	1.188 ± 0.012
x1 = 0.8	1.002 ± 0.0098

CC(Cl)(Cl)Cl + CCCCCOC(C)=O
303.15 K, 101.3 kPa
Conditions	viscosity [mPa·s]
x2 = 0.104	0.7366 ± 0.0062
x2 = 0.1989	0.7441 ± 0.0062
x2 = 0.2995	0.7518 ± 0.0063
x2 = 0.4018	0.7568 ± 0.0063
x2 = 0.5014	0.7653 ± 0.0063
x2 = 0.5996	0.7667 ± 0.0063
x2 = 0.6961	0.7663 ± 0.0063
x2 = 0.7935	0.7658 ± 0.0063
x2 = 0.8993	0.7589 ± 0.0063

C1CCOCC1 + CCCCO
viscosity [mPa·s], 101.3 kPa
Conditions	x1 = 0.0478	x1 = 0.0969	x1 = 0.1984	x1 = 0.288	x1 = 0.3973	x1 = 0.5005	x1 = 0.6788	x1 = 0.7023	x1 = 0.8041	x1 = 0.9024
298.15 K	2.294 ± 0.029	2.056 ± 0.026	1.662 ± 0.021	1.426 ± 0.018	1.222 ± 0.016	1.087 ± 0.014	0.931 ± 0.013	0.9162 ± 0.012	0.8645 ± 0.012	0.8316 ± 0.011
313.15 K	1.633 ± 0.021	1.483 ± 0.019	1.255 ± 0.016	1.086 ± 0.014	0.9459 ± 0.013	0.8494 ± 0.011	0.7345 ± 0.01	0.7252 ± 0.01	0.6832 ± 0.0096	0.6584 ± 0.0093

CC(C)C1CCCCC1 + CCCCO
viscosity [mPa·s], 100 kPa
Conditions	x1 = 0.0995	x1 = 0.1998	x1 = 0.2959	x1 = 0.4009	x1 = 0.4944	x1 = 0.5738	x1 = 0.6818	x1 = 0.7966	x1 = 0.8935
293.15 K	2.489 ± 0.053	2.126 ± 0.045	1.858 ± 0.039	1.614 ± 0.034	1.45 ± 0.031	1.325 ± 0.028	1.214 ± 0.026	1.139 ± 0.024	1.105 ± 0.023
298.15 K	2.189 ± 0.047	1.884 ± 0.04	1.654 ± 0.035	1.449 ± 0.031	1.31 ± 0.028	1.207 ± 0.026	1.114 ± 0.024	1.051 ± 0.022	1.022 ± 0.022
303.15 K	1.94 ± 0.041	1.678 ± 0.036	1.481 ± 0.031	1.308 ± 0.028	1.189 ± 0.025	1.104 ± 0.023	1.024 ± 0.022	0.974 ± 0.021	0.95 ± 0.02
308.15 K	1.726 ± 0.037	1.501 ± 0.032	1.332 ± 0.028	1.185 ± 0.025	1.085 ± 0.023	1.014 ± 0.022	0.947 ± 0.02	0.905 ± 0.019	0.885 ± 0.019
313.15 K	1.539 ± 0.033	1.348 ± 0.029	1.203 ± 0.026	1.078 ± 0.023	0.994 ± 0.021	0.935 ± 0.02	0.879 ± 0.019	0.844 ± 0.018	0.827 ± 0.018
318.15 K	1.379 ± 0.029	1.216 ± 0.026	1.092 ± 0.023	0.985 ± 0.021	0.915 ± 0.019	0.866 ± 0.018	0.818 ± 0.017	0.789 ± 0.017	0.774 ± 0.016
323.15 K	1.241 ± 0.026	1.1 ± 0.023	0.995 ± 0.021	0.906 ± 0.019	0.845 ± 0.018	0.804 ± 0.017	0.764 ± 0.016	0.738 ± 0.016	0.727 ± 0.015

CC(Cl)(Cl)Cl + CCCCO
298.15 K, 101 kPa
Conditions	viscosity [mPa·s]
x1 = 0.1022	2.187 ± 0.017
x1 = 0.2068	1.872 ± 0.015
x1 = 0.3061	1.611 ± 0.013
x1 = 0.4067	1.372 ± 0.011
x1 = 0.5174	1.164 ± 0.01
x1 = 0.605	1.042 ± 0.009
x1 = 0.6995	0.936 ± 0.009
x1 = 0.7924	0.855 ± 0.008
x1 = 0.9022	0.811 ± 0.008

O=CC(Br)(Br)Br + CCCCO
viscosity [mPa·s], 101.33 kPa
Conditions	x1 = 0.1	x1 = 0.2	x1 = 0.3	x1 = 0.4	x1 = 0.5	x1 = 0.6	x1 = 0.7	x1 = 0.797	x1 = 0.899
293.15 K	4.71 ± 0.06	6.92 ± 0.09	10.15 ± 0.13	15.97 ± 0.21	22.38 ± 0.28	21.27 ± 0.27	15.08 ± 0.2	11.21 ± 0.15	9.11 ± 0.12
313.15 K	2.56 ± 0.04	3.84 ± 0.06	4.96 ± 0.08	7.06 ± 0.12	8.81 ± 0.18	8.39 ± 0.17	6.2 ± 0.11	4.97 ± 0.09	4.21 ± 0.07

CC(Cl)(Cl)Cl + CCCO
298.15 K, 101 kPa
Conditions	viscosity [mPa·s]
x1 = 0.0572	1.789 ± 0.014
x1 = 0.1154	1.667 ± 0.013
x1 = 0.193	1.506 ± 0.012
x1 = 0.3007	1.318 ± 0.011
x1 = 0.3956	1.165 ± 0.01
x1 = 0.49	1.045 ± 0.009
x1 = 0.6367	0.909 ± 0.009
x1 = 0.7983	0.824 ± 0.008
x1 = 0.8861	0.799 ± 0.008
